Data from the NIST ThermoML archive (doi:10.1016/j.fluid.2015.03.016).
“And” between values parts separate entries of the source, which are not always exact repeats. Equal entries are not always repeated.

Details: Liquid

CCCCOC(=O)CCCCC(=O)OCCCC [dibutyl hexanedioate]
Details	viscosity
303.14 K, 1250 kPa, Vibrating wire viscometry	4.201 mPa·s
303.14 K, 1280 kPa, Vibrating wire viscometry	4.21 mPa·s
303.14 K, 2750 kPa, Vibrating wire viscometry	4.305 mPa·s
303.14 K, 2760 kPa, Vibrating wire viscometry	4.313 mPa·s
303.14 K, 2770 kPa, Vibrating wire viscometry	4.312 mPa·s
303.14 K, 5400 kPa, Vibrating wire viscometry	4.417 mPa·s
303.14 K, 5420 kPa, Vibrating wire viscometry	4.417 mPa·s and 4.419 mPa·s and 4.413 mPa·s
303.14 K, 7530 kPa, Vibrating wire viscometry	4.511 mPa·s
303.14 K, 7570 kPa, Vibrating wire viscometry	4.513 mPa·s
303.14 K, 7660 kPa, Vibrating wire viscometry	4.532 mPa·s
303.14 K, 10500 kPa, Vibrating wire viscometry	4.68 mPa·s
303.14 K, 10520 kPa, Vibrating wire viscometry	4.686 mPa·s
303.14 K, 10570 kPa, Vibrating wire viscometry	4.683 mPa·s
303.14 K, 20260 kPa, Vibrating wire viscometry	5.251 mPa·s
303.14 K, 20300 kPa, Vibrating wire viscometry	5.25 mPa·s
303.14 K, 20320 kPa, Vibrating wire viscometry	5.249 mPa·s
303.14 K, 65590 kPa, Vibrating wire viscometry	8.312 mPa·s
303.15 K, 1220 kPa, Vibrating wire viscometry	4.205 mPa·s
303.15 K, 1280 kPa, Vibrating wire viscometry	4.208 mPa·s
303.15 K, 1290 kPa, Vibrating wire viscometry	4.21 mPa·s
303.15 K, 1300 kPa, Vibrating wire viscometry	4.211 mPa·s
303.15 K, 2770 kPa, Vibrating wire viscometry	4.312 mPa·s
303.15 K, 5420 kPa, Vibrating wire viscometry	4.415 mPa·s and 4.419 mPa·s
303.15 K, 7660 kPa, Vibrating wire viscometry	4.531 mPa·s and 4.537 mPa·s
303.15 K, 7680 kPa, Vibrating wire viscometry	4.531 mPa·s and 4.533 mPa·s and 4.537 mPa·s
303.15 K, 7730 kPa, Vibrating wire viscometry	4.518 mPa·s
303.15 K, 10560 kPa, Vibrating wire viscometry	4.689 mPa·s
303.15 K, 15380 kPa, Vibrating wire viscometry	4.954 mPa·s
303.15 K, 15390 kPa, Vibrating wire viscometry	4.955 mPa·s and 4.963 mPa·s and 4.951 mPa·s
303.15 K, 30100 kPa, Vibrating wire viscometry	5.839 mPa·s
303.15 K, 30180 kPa, Vibrating wire viscometry	5.821 mPa·s
303.15 K, 30250 kPa, Vibrating wire viscometry	5.828 mPa·s
303.15 K, 30290 kPa, Vibrating wire viscometry	5.827 mPa·s
303.15 K, 30330 kPa, Vibrating wire viscometry	5.817 mPa·s
303.15 K, 30380 kPa, Vibrating wire viscometry	5.827 mPa·s
303.15 K, 39970 kPa, Vibrating wire viscometry	6.452 mPa·s
303.15 K, 40060 kPa, Vibrating wire viscometry	6.443 mPa·s
303.15 K, 40100 kPa, Vibrating wire viscometry	6.443 mPa·s
303.15 K, 40150 kPa, Vibrating wire viscometry	6.446 mPa·s
303.15 K, 49790 kPa, Vibrating wire viscometry	7.073 mPa·s
303.15 K, 49810 kPa, Vibrating wire viscometry	7.073 mPa·s
303.15 K, 49830 kPa, Vibrating wire viscometry	7.07 mPa·s
303.15 K, 49880 kPa, Vibrating wire viscometry	7.058 mPa·s
303.15 K, 65340 kPa, Vibrating wire viscometry	8.283 mPa·s
303.15 K, 65490 kPa, Vibrating wire viscometry	8.277 mPa·s
313.14 K, 1070 kPa, Vibrating wire viscometry	3.362 mPa·s
313.14 K, 1090 kPa, Vibrating wire viscometry	3.364 mPa·s
313.14 K, 1110 kPa, Vibrating wire viscometry	3.371 mPa·s
313.14 K, 1160 kPa, Vibrating wire viscometry	3.369 mPa·s
313.14 K, 2580 kPa, Vibrating wire viscometry	3.416 mPa·s
313.14 K, 2590 kPa, Vibrating wire viscometry	3.412 mPa·s and 3.414 mPa·s
313.14 K, 2600 kPa, Vibrating wire viscometry	3.415 mPa·s
313.14 K, 2610 kPa, Vibrating wire viscometry	3.416 mPa·s
313.14 K, 5050 kPa, Vibrating wire viscometry	3.518 mPa·s
313.14 K, 5060 kPa, Vibrating wire viscometry	3.518 mPa·s
313.14 K, 7630 kPa, Vibrating wire viscometry	3.595 mPa·s
313.14 K, 10470 kPa, Vibrating wire viscometry	3.713 mPa·s
313.14 K, 15150 kPa, Vibrating wire viscometry	3.89 mPa·s and 3.889 mPa·s
313.14 K, 15210 kPa, Vibrating wire viscometry	3.888 mPa·s
313.14 K, 20300 kPa, Vibrating wire viscometry	4.123 mPa·s
313.14 K, 20430 kPa, Vibrating wire viscometry	4.12 mPa·s
313.14 K, 20440 kPa, Vibrating wire viscometry	4.123 mPa·s
313.14 K, 30160 kPa, Vibrating wire viscometry	4.553 mPa·s
313.14 K, 30180 kPa, Vibrating wire viscometry	4.556 mPa·s and 4.554 mPa·s
313.14 K, 30190 kPa, Vibrating wire viscometry	4.556 mPa·s
313.14 K, 40210 kPa, Vibrating wire viscometry	5.026 mPa·s
313.14 K, 40270 kPa, Vibrating wire viscometry	5.022 mPa·s
313.14 K, 40290 kPa, Vibrating wire viscometry	5.03 mPa·s
313.14 K, 40330 kPa, Vibrating wire viscometry	5.028 mPa·s
313.14 K, 50580 kPa, Vibrating wire viscometry	5.596 mPa·s
313.14 K, 50590 kPa, Vibrating wire viscometry	5.598 mPa·s
313.14 K, 50610 kPa, Vibrating wire viscometry	5.595 mPa·s and 5.596 mPa·s and 5.591 mPa·s
313.14 K, 50640 kPa, Vibrating wire viscometry	5.591 mPa·s
313.14 K, 65090 kPa, Vibrating wire viscometry	6.358 mPa·s
313.14 K, 65110 kPa, Vibrating wire viscometry	6.365 mPa·s
313.15 K, 5050 kPa, Vibrating wire viscometry	3.522 mPa·s and 3.516 mPa·s
313.15 K, 5310 kPa, Vibrating wire viscometry	3.531 mPa·s
313.15 K, 5320 kPa, Vibrating wire viscometry	3.531 mPa·s
313.15 K, 5340 kPa, Vibrating wire viscometry	3.529 mPa·s
313.15 K, 5350 kPa, Vibrating wire viscometry	3.534 mPa·s
313.15 K, 5370 kPa, Vibrating wire viscometry	3.531 mPa·s
313.15 K, 5380 kPa, Vibrating wire viscometry	3.532 mPa·s
313.15 K, 7570 kPa, Vibrating wire viscometry	3.59 mPa·s
313.15 K, 7580 kPa, Vibrating wire viscometry	3.595 mPa·s
313.15 K, 7610 kPa, Vibrating wire viscometry	3.598 mPa·s
313.15 K, 10450 kPa, Vibrating wire viscometry	3.717 mPa·s
313.15 K, 10470 kPa, Vibrating wire viscometry	3.712 mPa·s
313.15 K, 10500 kPa, Vibrating wire viscometry	3.714 mPa·s
313.15 K, 15160 kPa, Vibrating wire viscometry	3.887 mPa·s and 3.889 mPa·s
313.15 K, 15180 kPa, Vibrating wire viscometry	3.891 mPa·s
313.15 K, 20420 kPa, Vibrating wire viscometry	4.122 mPa·s
313.15 K, 30150 kPa, Vibrating wire viscometry	4.56 mPa·s
313.15 K, 30200 kPa, Vibrating wire viscometry	4.555 mPa·s
323.11 K, 101.33 kPa, Capillary tube (Ostwald / Ubbelohde) method	2.704 mPa·s
323.14 K, 1140 kPa, Vibrating wire viscometry	2.727 mPa·s and 2.723 mPa·s
323.14 K, 5040 kPa, Vibrating wire viscometry	2.856 mPa·s
323.14 K, 10170 kPa, Vibrating wire viscometry	3.018 mPa·s
323.14 K, 30230 kPa, Vibrating wire viscometry	3.694 mPa·s and 3.693 mPa·s
323.14 K, 39990 kPa, Vibrating wire viscometry	4.08 mPa·s
323.14 K, 40050 kPa, Vibrating wire viscometry	4.079 mPa·s
323.15 K, 1130 kPa, Vibrating wire viscometry	2.728 mPa·s and 2.722 mPa·s
323.15 K, 2630 kPa, Vibrating wire viscometry	2.775 mPa·s
323.15 K, 2640 kPa, Vibrating wire viscometry	2.778 mPa·s
323.15 K, 2650 kPa, Vibrating wire viscometry	2.776 mPa·s and 2.775 mPa·s
323.15 K, 5040 kPa, Vibrating wire viscometry	2.856 mPa·s
323.15 K, 5070 kPa, Vibrating wire viscometry	2.86 mPa·s
323.15 K, 5100 kPa, Vibrating wire viscometry	2.863 mPa·s
323.15 K, 5170 kPa, Vibrating wire viscometry	2.846 mPa·s
323.15 K, 5180 kPa, Vibrating wire viscometry	2.841 mPa·s
323.15 K, 5190 kPa, Vibrating wire viscometry	2.843 mPa·s
323.15 K, 7740 kPa, Vibrating wire viscometry	2.926 mPa·s and 2.931 mPa·s
323.15 K, 7750 kPa, Vibrating wire viscometry	2.924 mPa·s
323.15 K, 7760 kPa, Vibrating wire viscometry	2.926 mPa·s and 2.931 mPa·s
323.15 K, 10130 kPa, Vibrating wire viscometry	3.018 mPa·s
323.15 K, 10140 kPa, Vibrating wire viscometry	3.02 mPa·s
323.15 K, 10150 kPa, Vibrating wire viscometry	3.02 mPa·s and 3.016 mPa·s
323.15 K, 15220 kPa, Vibrating wire viscometry	3.172 mPa·s and 3.173 mPa·s and 3.174 mPa·s
323.15 K, 15230 kPa, Vibrating wire viscometry	3.175 mPa·s and 3.171 mPa·s
323.15 K, 20200 kPa, Vibrating wire viscometry	3.331 mPa·s
323.15 K, 20230 kPa, Vibrating wire viscometry	3.327 mPa·s and 3.335 mPa·s
323.15 K, 20250 kPa, Vibrating wire viscometry	3.33 mPa·s
323.15 K, 20270 kPa, Vibrating wire viscometry	3.334 mPa·s
323.15 K, 30190 kPa, Vibrating wire viscometry	3.693 mPa·s
323.15 K, 30220 kPa, Vibrating wire viscometry	3.689 mPa·s
323.15 K, 40130 kPa, Vibrating wire viscometry	4.073 mPa·s
323.15 K, 40140 kPa, Vibrating wire viscometry	4.077 mPa·s
323.15 K, 50030 kPa, Vibrating wire viscometry	4.456 mPa·s
323.15 K, 50050 kPa, Vibrating wire viscometry	4.45 mPa·s
323.15 K, 50060 kPa, Vibrating wire viscometry	4.457 mPa·s
323.16 K, 5190 kPa, Vibrating wire viscometry	2.849 mPa·s
323.16 K, 65110 kPa, Vibrating wire viscometry	5.126 mPa·s
323.16 K, 65190 kPa, Vibrating wire viscometry	5.123 mPa·s
323.16 K, 65230 kPa, Vibrating wire viscometry	5.125 mPa·s
323.16 K, 65310 kPa, Vibrating wire viscometry	5.119 mPa·s
333.03 K, 101.33 kPa, Capillary tube (Ostwald / Ubbelohde) method	2.25 mPa·s
333.15 K, 1000 kPa, Vibrating wire viscometry	2.27 mPa·s
333.15 K, 1020 kPa, Vibrating wire viscometry	2.27 mPa·s
333.15 K, 1170 kPa, Vibrating wire viscometry	2.269 mPa·s
333.15 K, 1200 kPa, Vibrating wire viscometry	2.268 mPa·s
333.15 K, 2530 kPa, Vibrating wire viscometry	2.296 mPa·s
333.15 K, 5030 kPa, Vibrating wire viscometry	2.367 mPa·s
333.15 K, 5050 kPa, Vibrating wire viscometry	2.362 mPa·s
333.15 K, 5070 kPa, Vibrating wire viscometry	2.365 mPa·s
